We go through 17 compounds from patent publication US20140364431A1, “Quinoline and cinnoline derivatives and their applications” (Shenyang Pharmaceutical University, priority 2011, published 2014).

Converted amounts (≈) assume the structure as drawn. Where a name gives a salt, the structure may show the parent alone. Read-outs that look alike come from different tables or passages of the source.

The test system of assay [1] is H460 (human lung cancer cell). Description: In vitro anti-tumor cellular activity (MTT), H460. The format is cell-based. The settings on record: for IC50: Homo sapiens, read-out: H460 IC50.
The test system of assay [2] is SMMC-7721 (hepatoma cell). Description: In vitro anti-tumor cellular activity (MTT), SMMC-7721. In kind it is cell-based, human. The settings on record: for IC50: Homo sapiens, read-out: SMMC-7721 IC50.
Assay [3] concerns U87MG (Human malignant glioblastoma cells). Briefly: In vitro anti-tumor cellular activity (MTT), U87MG. The format is cell-based. The note with it: for IC50: Homo sapiens, U-87 MG, read-out: U87MG IC50.
For assay [4], the system named is MKN-45 (human gastric carcinoma cell). Description: In vitro anti-tumor cellular activity (MTT), MKN-45. In kind it is cell-based. The note with it: for IC50: Homo sapiens, read-out: MKN-45 IC50.
Assay [5] has as its system HT-29 (colon cancer cell). Description: In vitro anti-tumor cellular activity (MTT), HT-29. The format is cell-based, human. The note with it: for IC50: Homo sapiens, read-out: HT-29 IC50.

As to `COc1cc2c(Oc3ccc(NC(=O)c4nn(-c5ccc(Cl)cc5)c5ccccc5c4=O)cc3F)ccnc2cc1OCCCN1CCCCC1` [Example 10, N-(3-fluoro-4-((6-methoxy-7-(3-(piperidin-1-yl)propoxy)quinolin-4-yl)oxy)phenyl)-1-(4-chlorophenyl)-4-oxo-1,4-dihydrocinnoline-3-carboxamide], the IC50 in assay [1] (NCI-H460, 72 h) was 0.06 µg/mL (≈ 0.0847 µM); in assay [2] (SMMC-7721, 72 h), 1 µg/mL (≈ 1.41 µM); in assay [3] (72 h), 0.86 µg/mL (≈ 1.21 µM); in assay [4] (MKN-45, 72 h), 0.087 µg/mL (≈ 0.123 µM); in assay [5] (HT-29, 72 h), 0.42 µg/mL (≈ 0.593 µM).
As to “N-(3-fluoro-4-((6-methoxy-7-(3-(piperidin-1-yl)propoxy)quinolin-4-yl)oxy)phenyl)-1-(2-ch lorophenyl)-4-oxo-1,4-dihydrocinnoline-3-carboxamide dihydrochloride [Example 2]”, the “H460 IC50” value in assay [1] (MTT, 72 hours, H460) came to 0.052 µg/mL. Further, the “SMMC-7721 IC50” value in assay [2] (MTT, 72 hours, SMMC-7721) was determined as 0.3 µg/mL. In addition, the “U87MG IC50” value in assay [3] (MTT, 72 hours, U87MG) was found to be 0.35 µg/mL. Also, the “MKN-45 IC50” value in assay [4] (MTT, 72 hours, MKN-45) turned out to be 0.007 µg/mL. The “HT-29 IC50” value in assay [5] (MTT, 72 hours, HT-29) stood at 0.19 µg/mL.
Taken in the same sequence, the figures for “N-(3-fluoro-4-((6-methoxy-7-(3-(4-methylpiperidin-1-yl)propoxy)quinolin-4-yl)oxy)phenyl)-1-(2-fluorophenyl)-4-oxo-1,4-dihydrocinnoline-3-carboxamide [Example 14]” were 0.47 µg/mL, 1.1 µg/mL, 0.15 µg/mL, 0.45 µg/mL and 0.31 µg/mL.
In the case of “N-(3-fluoro-4-((6-methoxy-7-(3-(piperidin-1-yl)propoxy)quinolin-4-yl)oxy)phenyl)-1-(2-(tr ifluoromethyl)phenyl)-4-oxo-1,4-dihydrocinnoline-3-carboxamide dihydrochloride [Example 5]”, the “H460 IC50” value in assay [1] (MTT, 72 hours, H460) was determined as 0.77 µg/mL. In addition, in assay [2] (MTT, 72 hours, SMMC-7721), the “SMMC-7721 IC50” value amounted to 0.25 µg/mL. Also, in assay [3] (MTT, 72 hours, U87MG), the “U87MG IC50” value amounted to 1.2 µg/mL. For the same compound, the “MKN-45 IC50” value in assay [4] (MTT, 72 hours, MKN-45) amounted to 0.2 µg/mL. Also, the “HT-29 IC50” value in assay [5] (MTT, 72 hours, HT-29) stood at 0.42 µg/mL.
`COc1cc2c(Oc3ccc(NC(=O)c4nn(-c5c(Cl)cccc5Cl)c5ccccc5c4=O)cc3F)ccnc2cc1OCCCN1CCCC1` [Example 31, N-(3-fluoro-4-((6-methoxy-7-(3-(pyrrolidin-1-yl)propoxy)quinolin-4-yl)oxy)phenyl)-1-(2,6-dichlorophenyl)-4-oxo-1,4-dihydrocinnoline-3-carboxamide]: the concentration for half-maximal inhibition (IC50) came out at 0.77 µg/mL (≈ 1.06 µM) in assay [1] (NCI-H460, 72 h); 0.33 µg/mL (≈ 0.453 µM) in assay [2] (SMMC-7721, 72 h); 0.26 µg/mL (≈ 0.357 µM) in assay [3] (72 h); 0.18 µg/mL (≈ 0.247 µM) in assay [4] (MKN-45, 72 h); 0.27 µg/mL (≈ 0.371 µM) in assay [5] (HT-29, 72 h).
The matching figures for `COc1cc2c(Oc3ccc(NC(=O)c4nn(-c5ccc(Cl)cc5Cl)c5ccccc5c4=O)cc3F)ccnc2cc1OCCCN1CCCCC1` [Example 27, N-(3-fluoro-4-((6-methoxy-7-(3-(piperidin-1-yl)propoxy)quinolin-4-yl)oxy)phenyl)-1-(2,4-dichlorophenyl)-4-oxo-1,4-dihydrocinnoline-3-carboxamide]: 1.5 µg/mL (≈ 2.02 µM), 0.9 µg/mL (≈ 1.21 µM), 0.6 µg/mL (≈ 0.808 µM), 2.1 µg/mL (≈ 2.83 µM) and 1.8 µg/mL (≈ 2.42 µM).
Taken in the same sequence, the figures for `COc1cc2c(Oc3ccc(NC(=O)c4nn(-c5ccccc5C(F)(F)F)c5ccccc5c4=O)cc3F)ccnc2cc1OCCCN1CCOCC1` [Example 4, N-(3-fluoro-4-((6-methoxy-7-(3-(morpholin-4-ylpropoxy)quinolin-4-yl)oxy)phenyl)-1-(2-(trifluoromethyl)phenyl)-4-oxo-1,4-dihydrocinnoline-3-carboxamidedihydrochloride] were 1 µg/mL, 0.9 µg/mL, 0.8 µg/mL, 2 µg/mL and 1.2 µg/mL.
As for `COc1cc2c(Oc3ccc(NC(=O)c4nn(-c5ccc(Br)cc5)c5ccccc5c4=O)cc3F)ccnc2cc1OCCCN1CCCCC1.Cl.Cl` [Example 3, N-(3-fluoro-4-((6-methoxy-7-(3-(piperidin-1-yl)propoxy)quinolin-4-yl)oxy)phenyl)-1-(4-bromophenyl)-4-oxo-1,4-dihydrocinnoline-3-carboxamide dihydrochloride], the IC50 in assay [1] (NCI-H460, 72 h) is 0.3 µg/mL; in assay [2] (SMMC-7721, 72 h), 0.63 µg/mL; in assay [3] (72 h) it was 1.2 µg/mL; in assay [4] (MKN-45, 72 h), 0.34 µg/mL; in assay [5] (HT-29, 72 h), 0.86 µg/mL.
For `N.N.[Cl][Pt][Cl]` [Cisplatin, reference compound], in assay [1] (MTT, 72 hours, H460), the “H460 IC50” value is 0.23 µg/mL. Also, the “SMMC-7721 IC50” value in assay [2] (MTT, 72 hours, SMMC-7721) was determined as 0.9 µg/mL. Further, the “U87MG IC50” value in assay [3] (MTT, 72 hours, U87MG) was found to be 0.19 µg/mL. In assay [4] (MTT, 72 hours, MKN-45), the “MKN-45 IC50” value stood at 0.68 µg/mL. Moreover, the “HT-29 IC50” value in assay [5] (MTT, 72 hours, HT-29) worked out at 1 µg/mL.
Regarding “N-(3-fluoro-4-((6-methoxy-7-(3-(morpholin-4-yl)propoxy)quinolin-4-yl)oxy)phenyl)-1-(2-f luorophenyl)-4-oxo-1,4-dihydrocinnoline-3-carboxamide [Example 45]”, the “H460 IC50” value in assay [1] (MTT, 72 hours, H460) is 1 µg/mL. The “SMMC-7721 IC50” value in assay [2] (MTT, 72 hours, SMMC-7721) came out at 2.3 µg/mL. Moreover, the “U87MG IC50” value in assay [3] (MTT, 72 hours, U87MG) turned out to be 2.1 µg/mL. Further, the “MKN-45 IC50” value in assay [4] (MTT, 72 hours, MKN-45) amounted to 1.6 µg/mL. In assay [5] (MTT, 72 hours, HT-29), the “HT-29 IC50” value came to 0.87 µg/mL.
`COc1cc2c(Oc3ccc(NC(=O)c4nn(-c5cccc(F)c5)c5ccccc5c4=O)cc3F)ccnc2cc1OCCCN1CCCCC1` [Example 9, N-(3-fluoro-4-((6-methoxy-7-(3-(piperidin-1-yl)propoxy)quinolin-4-yl)oxy)phenyl)-1-(3-fluorophenyl)-4-oxo-1,4-dihydrocinnoline-3-carboxamide]: the half-inhibitory concentration (IC50) in assay [1] (NCI-H460, 72 h) was 0.007 µg/mL (≈ 0.0101 µM); in assay [2] (SMMC-7721, 72 h) it was 0.65 µg/mL (≈ 0.94 µM); in assay [3] (72 h), 1.2 µg/mL (≈ 1.73 µM); in assay [4] (MKN-45, 72 h) it was 0.0075 µg/mL (≈ 0.0108 µM); in assay [5] (HT-29, 72 h), 0.17 µg/mL (≈ 0.246 µM).
Consider `COc1cc2c(Oc3ccc(NC(=O)c4nn(-c5ccccc5Br)c5ccccc5c4=O)cc3F)ccnc2cc1OCCCN1CCOCC1` [Example 34, N-(3-fluoro-4-((6-methoxy-7-(3-(morpholin-4-yl)propoxy)quinolin-4-yl)oxy)phenyl)-1-(2-bromophenyl)-4-oxo-1,4-dihydrocinnoline-3-carboxamide], for which the IC50 in assay [1] (NCI-H460, 72 h) came to 0.7 µg/mL (≈ 0.928 µM); in assay [2] (SMMC-7721, 72 h), 1.5 µg/mL (≈ 1.99 µM); in assay [3] (72 h), 0.65 µg/mL (≈ 0.861 µM); in assay [4] (MKN-45, 72 h), 1.3 µg/mL (≈ 1.72 µM); in assay [5] (HT-29, 72 h), 0.43 µg/mL (≈ 0.57 µM).
Take “N-(3-fluoro-4-((6-methoxy-7-(3-(pyrrolidin-1-yl)propoxy)quinolin-4-yl)oxy)phenyl)-1-(3,4-difluorophenyl)-4-oxo-1,4-dihydrocinnoline-3-carboxamide [Example 12]”: in assay [1] (MTT, 72 hours, H460), the “H460 IC50” value amounted to 0.91 µg/mL. Moreover, the “SMMC-7721 IC50” value in assay [2] (MTT, 72 hours, SMMC-7721) came to 0.67 µg/mL. Further, the “U87MG IC50” value in assay [3] (MTT, 72 hours, U87MG) is 0.55 µg/mL. Further, the “MKN-45 IC50” value in assay [4] (MTT, 72 hours, MKN-45) turned out to be 1.2 µg/mL. The “HT-29 IC50” value in assay [5] (MTT, 72 hours, HT-29) was 0.41 µg/mL.
`COc1cc2c(Oc3ccc(NC(=O)c4nn(-c5cccc(F)c5)c5ccccc5c4=O)cc3F)cnnc2cc1OCCCN1CCCCC1` [Example 64, N-(3-fluoro-4-((6-methoxy-7-(3-(piperidin-1-yl)propoxy)cinnolin-4-yl)oxy)phenyl)-1-(3-fluorophenyl)-4-oxo-1,4-dihydrocinnoline-3-carboxamide]: the IC50 amounted to 1.8 µg/mL (≈ 2.6 µM) in assay [1] (NCI-H460, MTT, 72 hours, H460); 1.9 µg/mL (≈ 2.74 µM) in assay [2] (MTT, 72 hours, SMMC-7721); 2.7 µg/mL (≈ 3.9 µM) in assay [3] (MTT, 72 hours, U87MG); 3.3 µg/mL (≈ 4.76 µM) in assay [4] (MTT, 72 hours, MKN-45); 3.2 µg/mL (≈ 4.62 µM) in assay [5] (MTT, 72 hours, HT-29).
In the case of `COc1cc2c(Oc3ccc(NC(=O)c4nn(-c5cccc(F)c5)c5ccccc5c4=O)cc3F)cnnc2cc1OCCCN1CCN(C)CC1` [Example 62, N-(3-fluoro-4-((6-methoxy-7-(3-(4-methylpiperazin-1-yl)propoxy)cinnolin-4-yl)oxy)phenyl)-1-(3-fluorophenyl)-4-oxo-1,4-dihydrocinnoline-3-carboxamide], the IC50 in assay [1] (NCI-H460, MTT, 72 hours, H460) is 0.8 µg/mL (≈ 1.13 µM); in assay [2] (MTT, 72 hours, SMMC-7721) it was 2.1 µg/mL (≈ 2.97 µM); in assay [3] (MTT, 72 hours, U87MG), 1.4 µg/mL (≈ 1.98 µM); in assay [4] (MTT, 72 hours, MKN-45) it was 3.6 µg/mL (≈ 5.09 µM); in assay [5] (MTT, 72 hours, HT-29), 2.1 µg/mL (≈ 2.97 µM).
With `COc1cc2c(Oc3ccc(NC(=O)c4nn(-c5ccc(F)cc5Br)c5ccccc5c4=O)cc3F)ccnc2cc1OCCCN1CCCC1` [Example 18, N-(3-fluoro-4-((6-methoxy-7-(3-(pyrrolidin-1-yl)propoxy)quinolin-4-yl)oxy)phenyl)-1-(2-bromo-4-fluorophenyl)-4-oxo-1,4-dihydrocinnoline-3-carboxamide], the IC50 in assay [1] (NCI-H460, 72 h) came to 1.3 µg/mL (≈ 1.72 µM); in assay [2] (SMMC-7721, 72 h), 2.1 µg/mL (≈ 2.78 µM); in assay [3] (72 h) it was 0.8 µg/mL (≈ 1.06 µM); in assay [4] (MKN-45, 72 h), 1.5 µg/mL (≈ 1.98 µM); in assay [5] (HT-29, 72 h) it was 0.9 µg/mL (≈ 1.19 µM).
Consider `COc1cc2c(Oc3ccc(NC(=O)c4nn(-c5ccccc5Cl)c5ccccc5c4=O)cc3F)ccnc2cc1OCCCN1CCOCC1` [Example 33, N-(3-fluoro-4-((6-methoxy-7-(3-(morpholin-4-yl)propoxy)quinolin-4-yl)oxy)phenyl)-1-(2-chlorophenyl)-4-oxo-1,4-dihydrocinnoline-3-carboxamide], for which the half-inhibitory concentration (IC50) in assay [1] (NCI-H460, 72 h) stood at 2.2 µg/mL (≈ 3.1 µM); in assay [2] (SMMC-7721, 72 h), 1.6 µg/mL (≈ 2.25 µM); in assay [3] (72 h), 1.4 µg/mL (≈ 1.97 µM); in assay [5] (HT-29, 72 h), 0.9 µg/mL (≈ 1.27 µM).

As usually defined, the IC50 is the concentration that gives 50% inhibition.
